Test results: patent US20120316157A1, “PLANT DISEASE CONTROLLING COMPOSITION AND METHOD FOR CONTROLLING PLANT DISEASE” (SUMITOMO CHEMICAL COMPANY, LIMITED, priority 2010, published 2012)

These molecules were tested on gray mold fungus (Botrytis cinerea) (assay: Cucumber leaf disk preventive test against gray mold fungus (Test Examples 1, 2 and Reference Example)). Conditions: Botrytis cinerea, foliar, 96 h, heterocyclic compound alone, 0.5 ppm, 15° C., four days, read-out: preventive value (%).
Type: in vivo
Description: True leaf of cucumber is punched out with cork borer to 13 mm in diameter to prepare a leaf disk. In 24 well microwell plate that is dispensed with 1 ml 0.8% water agar, the leaf disk is placed such that the upper side of the leaf is in an upward direction. Thereto is added 20 micro liter a testing solution prepared by mixing a dimethyl sulfoxide solution of the present compound (racemate) and a dimethyl sulfoxide solution of ferimzone or oxolinic acid to a predetermined concentration to treat the leaf disk.
After confirming that the testing medical solution is dried, conidium of gray mold fungus (Botrytis cinerea) is suspended into potato dextrose broth (DIFCO) in a density of about 10^5 conidium/mL and is then subjected to a spray inoculation. After leaving to stand the leaf disk in a growth chamber set up at 15° C. for four days, an onset area on the leaf is measured and then calculated an onset area rate (hereinafter, referred to as an onset area rate of treated group).
The same operation is carried out with 20 micro liter water instead of 20 micro liter a testing medicine solution to calculate an onset area rate (hereinafter, referred to an onset area rate of non-treated group).
A preventive value is calculated from the above onset area rate of treated group and the onset area rate of non-treated group by the following equation:
Preventive value(%)=100×(A−B)/A
A: an onset area rate of treated group
B: an onset area rate of non-treated group
The same operations as described in Test Example 1 are carried out with fenamidone, acibenzolar-5-methyl, amisulbrom, dazomet, diclomezine, famoxadone, fenoxanil, probenazole, proquinazid, pyroquilon, quinoxyfen, tricyclazole, isoprothiolane or tiadinil instead of ferimzone or oxolinic acid, so as to calculate respective preventive values.
Also for comparison, the same operations as described in Test Example 1 are carried out with the exception that the testing medicine solution is substituted with a predetermined concentration of each dimethyl sulfoxide solution of the present compound (racemate), fenamidone, acibenzolar-5-methyl, amisulbrom, dazomet, diclomezine, famoxadone, fenoxanil, probenazole, proquinazid, pyroquilon, quinoxyfen, tricyclazole, isoprothiolane, or tiadinil, so as to calculate respective preventive values.
For comparison, the same operations as described in Test Example 1 are carried out with the exception that the testing medicine solution is substituted with a predetermined concentration of each dimethyl sulfoxide solution of ferimzone or oxolinic acid, so as to calculate a preventive value.

| Structure (SMILES) | pest or weed control at 0.5 ppm [%] |
| --- | --- |
| Fc1ccc(Oc2ccnc3cc(Cl)cc(Cl)c23)cc1 [quinoxyfen] | 10 |
| C[C@@]1(c2ccc(Oc3ccccc3)cc2)OC(=O)N(Nc2ccccc2)C1=O (racemic) [famoxadone] | 10 |
| Cc1c(Cl)cc(-c2ccc(=O)[nH]n2)cc1Cl [diclomezine] | 10 |
| C=CCOC1=NS(=O)(=O)c2ccccc21 [probenazole] | 10 |
| CSC1=N[C@@](C)(c2ccccc2)C(=O)N1Nc1ccccc1 [fenamidone] | 5 |
| Cc1ccc(NC(=O)c2snnc2C)cc1Cl [tiadinil] | 10 |
| Cc1cccc2sc3nncn3c12 [tricyclazole] | 10 |

Same assay, conditions: Botrytis cinerea, foliar, 96 h, heterocyclic compound alone, 5.0 ppm, 15° C., four days, read-out: preventive value (%)

| Structure (SMILES) | pest or weed control at 5 ppm [%] |
| --- | --- |
| Fc1ccc(Oc2ccnc3cc(Cl)cc(Cl)c23)cc1 [quinoxyfen] | 15 |
| C[C@@]1(c2ccc(Oc3ccccc3)cc2)OC(=O)N(Nc2ccccc2)C1=O (racemic) [famoxadone] | 15 |
| Cc1c(Cl)cc(-c2ccc(=O)[nH]n2)cc1Cl [diclomezine] | 15 |
| C=CCOC1=NS(=O)(=O)c2ccccc21 [probenazole] | 25 |
| CSC1=N[C@@](C)(c2ccccc2)C(=O)N1Nc1ccccc1 [fenamidone] | 10 |
| Cc1ccc(NC(=O)c2snnc2C)cc1Cl [tiadinil] | 25 |
| Cc1cccc2sc3nncn3c12 [tricyclazole] | 15 |

Same assay, conditions: Botrytis cinerea, foliar, 96 h, read-out: preventive value (%), heterocyclic compound alone, 0.5 ppm, 15° C., four days

| Structure (SMILES) | pest or weed control at 0.5 ppm [%] |
| --- | --- |
| C/C(=N/Nc1nc(C)cc(C)n1)c1ccccc1C [ferimzone] | 10 |
| CC(C)OC(=O)C(C(=O)OC(C)C)=C1SCCS1 [isoprothiolane] | 10 |
| CN1CSC(=S)N(C)C1 [dazomet] | 10 |
| O=C1CCc2cccc3c2N1CC3 [pyroquilon] | 10 |

Same assay, conditions: Botrytis cinerea, foliar, 96 h, read-out: preventive value (%), heterocyclic compound alone, 5.0 ppm, 15° C., four days

| Structure (SMILES) | pest or weed control at 5 ppm [%] |
| --- | --- |
| C/C(=N/Nc1nc(C)cc(C)n1)c1ccccc1C [ferimzone] | 15 |
| CC(C)OC(=O)C(C(=O)OC(C)C)=C1SCCS1 [isoprothiolane] | 15 |
| CN1CSC(=S)N(C)C1 [dazomet] | 20 |
| O=C1CCc2cccc3c2N1CC3 [pyroquilon] | 15 |

Same assay, conditions: Botrytis cinerea, foliar, 96 h, the present amide compound alone, 1.0 ppm, 15° C., four days

| Structure (SMILES) | pest or weed control at 1 ppm [%] |
| --- | --- |
| CNC(=O)C(OC)c1ccccc1COc1cc(C)ccc1C (racemic) [the present amide compound] | 46 |

Same assay, conditions: Botrytis cinerea, foliar, 96 h, the present amide compound alone, 2.5 ppm, 15° C., four days

| Structure (SMILES) | pest or weed control at 2.5 ppm [%] |
| --- | --- |
| CNC(=O)C(OC)c1ccccc1COc1cc(C)ccc1C (racemic) [the present amide compound] | 56 |

Same assay, conditions: heterocyclic compound alone, 0.5 ppm, 15° C., four days

| Structure (SMILES) | preventive value (%) |
| --- | --- |
| CSC(=O)c1cccc2nnsc12 [acibenzolar-S-methyl] | 15 |
| Cc1c(Br)c2ccc(F)cc2n1S(=O)(=O)c1ncn(S(=O)(=O)N(C)C)n1 [amisulbrom] | 10 |
| CCCOc1nc2ccc(I)cc2c(=O)n1CCC [proquinazid] | 10 |
| CC(Oc1ccc(Cl)cc1Cl)C(=O)NC(C)(C#N)C(C)C (centres unmarked) [fenoxanil] | 10 |

Same assay, conditions: heterocyclic compound alone, 5.0 ppm, 15° C., four days

| Structure (SMILES) | preventive value (%) |
| --- | --- |
| CSC(=O)c1cccc2nnsc12 [acibenzolar-S-methyl] | 25 |
| Cc1c(Br)c2ccc(F)cc2n1S(=O)(=O)c1ncn(S(=O)(=O)N(C)C)n1 [amisulbrom] | 15 |
| CCCOc1nc2ccc(I)cc2c(=O)n1CCC [proquinazid] | 15 |
| CC(Oc1ccc(Cl)cc1Cl)C(=O)NC(C)(C#N)C(C)C (centres unmarked) [fenoxanil] | 15 |
